The conditions of data set [1]: cited from earlier work.
The conditions of data set [2]: background statement; cited from earlier work.
A further data set relates to deacetylase. The note with it: dose between 20 and 40 mg/kg; patients with cervical cancer; cited from earlier work.
The conditions of data set [3]: in comparison with sodium valproate or valproic acid; cited from earlier work.
For the next data set, the system named is epileptic patients. Put plainly: Open, comparative clinical trial in epileptic patients versus sodium valproate. The note with it: expected. From the text:
The therapeutic benefit of magnesium valproate hydrate of the present invention is compared with that of sodium valproate in an open, comparative clinical trial in epileptic patients. […] Then treatment is substituted with magnesium valproate hydrate (alone or combined with other drugs) for 3 months.

The nature of data set [4]: Stability of the solid during storage. The class given is physicochemical. The settings on record: ambient conditions where stated, hydrate.
Data set [5] is described as follows: Hygroscopicity / deliquescence of the solid. The class given is physicochemical. The note with it: isolated solid.
Setting [6] is: after 3 months of magnesium valproate hydrate, substituted for sodium valproate.

Consider `CCCC(CCC)C(=O)O` [Valproic acid, 2-propylpentanoic acid], for which, in data set [1], the solubility in water entry is “very slightly soluble in water”.
For the compound `CCCC(CCC)C(=O)[O-].[Na+]` [Sodium valproate], the hygroscopicity entry in data set [2] is listed as “hygroscopic”.
“2-propylpentanoic acid magnesium salt [magnesium valproate]”: the “deacetylase activity and histone acetylation in tumor tissues” value in the data set on deacetylase is “inhibits deacetylase activity and hyperacetylates histones”. For the same compound, the absorption rate result in data set [3] is “slower and more regular absorption rate”.
Regarding `CCCC(CCC)C(=O)O` [divalproex sodium], the hygroscopicity entry in data set [2] was “not hygroscopic”.
For the compound magnesium valproate hydrate, in the data set with epileptic patients (setting [6]), the “number of patients with no convulsions or only occasional convulsions” value was “increase significantly” and the “percentage of patients without convulsions” value was “increase significantly”. Also, the “side effects (e.g., gastric discomfort or ulceration, malaise)” value with epileptic patients (versus sodium valproate) is reported as “fewer side effects”. Further, the stability during storage entry in data set [4] is on record as “stable during storage under ambient conditions”. Also, the hygroscopicity / deliquescence result in data set [5] is listed as “not hygroscopic or deliquescent”.

(Values after patent US7482486B2, “Methods for the preparation and formulation of magnesium valproate hydrate” (BioLink Life Sciences, Inc., priority 2005, dated 2009).)
